# Columns and labels:
# Format in all cases: cell-based
# CMKLR1 [1] = target: T1, CMKLR1 (Homo sapiens, UniProt Q99788); assay: ERK1/2 phosphorylation in MEF cells, CMKLR1; parameters: expressed in transfected cells; details: PTX pre-treatment, 300 nM chemerin
# T1 sequence (Q99788 1-373): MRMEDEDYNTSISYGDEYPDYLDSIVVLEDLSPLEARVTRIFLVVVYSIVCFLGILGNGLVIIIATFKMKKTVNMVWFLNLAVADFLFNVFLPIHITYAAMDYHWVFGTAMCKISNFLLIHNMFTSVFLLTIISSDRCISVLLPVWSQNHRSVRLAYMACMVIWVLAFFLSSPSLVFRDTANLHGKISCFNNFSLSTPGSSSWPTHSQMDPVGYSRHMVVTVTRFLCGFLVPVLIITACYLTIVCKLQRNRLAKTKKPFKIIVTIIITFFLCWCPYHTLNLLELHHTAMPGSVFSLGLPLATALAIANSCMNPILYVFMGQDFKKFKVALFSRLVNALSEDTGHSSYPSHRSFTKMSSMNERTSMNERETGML
# Protocol: Whole cell lysates were resolved on 10% Tris/Tricine polyacrylamide gels and transferred to nitrocellulose membranes. […] Chemiluminescent detection was performed using ECL-Plus reagent (Perkin Elmer).
# Results are expressed as the ratio between the amounts of phospho-ERK1/2 and total ERK1/2 following quantification. […] MEF cells were derived form β-Arr1 KO and WT1 or β-Arr2 KO and WT2 siblings.
# GPR1 [2] = target: T2, GPR1 (Homo sapiens, UniProt P46091); assay: ERK1/2 phosphorylation in MEF cells, GPR1; parameters: expressed in transfected cells; details: PTX pre-treatment, 300 nM chemerin
# T2 sequence (P46091 1-355): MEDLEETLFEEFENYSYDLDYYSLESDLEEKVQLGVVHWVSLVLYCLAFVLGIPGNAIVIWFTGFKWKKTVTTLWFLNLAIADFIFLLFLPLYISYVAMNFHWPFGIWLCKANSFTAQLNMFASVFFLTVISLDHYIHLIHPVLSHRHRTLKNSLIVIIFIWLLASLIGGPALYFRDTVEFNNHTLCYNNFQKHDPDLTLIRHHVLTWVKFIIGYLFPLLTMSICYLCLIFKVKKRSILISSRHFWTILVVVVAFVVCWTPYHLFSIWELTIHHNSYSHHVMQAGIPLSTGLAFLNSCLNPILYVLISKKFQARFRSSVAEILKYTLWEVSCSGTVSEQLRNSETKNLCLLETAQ
# Protocol: CHO-K1 and MEF cells stably expressing receptors of interest were starved for 12–18 h in serum-free medium prior to stimulation. […] Whole cell lysates were resolved on 10% Tris/Tricine polyacrylamide gels and transferred to nitrocellulose membranes. Phosphorylated ERK1/2 and total ERK1/2 were detected by using rabbit polyclonal anti-phospho-ERK1/2 (Cell Signaling #4370, 1:1,000) and anti-ERK1/2 (Cell Signaling #4695S, 1:2,000) antibodies. Chemiluminescent detection was performed using ECL-Plus reagent (Perkin Elmer).
# We next investigated the contribution of Gαi/o proteins and arrestins to ERK1/2 phosphorylation by using mouse embryonic fibroblast cells (MEF) deficient for the expression of arrestins (β-Arr1^-/- and β-Arr2^-/-) and stably expressing CMKLR1 or GPR1. […] However, we cannot rule out that the weak activation of G proteins by GPR1 contributes to ERK1/2 phosphorylation. We also must take into consideration that these assays display different levels of amplification and were performed in different cell types.
# Fig 10 Contribution of Gi/o proteins and arrestins to CMKLR1- and GPR1-mediated ERK1/2 phosphorylation. […] Results are expressed as the ratio between the amounts of phospho-ERK1/2 and total ERK1/2 following quantification. […] Statistical significance was assessed using Tukey's test (***P < 0.0001; ** and ^## P< 0.001; * and ^# P< 0.01).
# CMKLR1 [3] = target: T1, CMKLR1; assay: β-arrestin BRET recruitment assay, CMKLR1; parameters: expressed in transfected cells; host or cells: HEK293T; details: CMKLR1, HEK293T; PTX pretreatment, 100 nM chemerin
# Protocol: (§1) β-arrestin recruitment was measured by a BRET proximity assay as previously described. Briefly, plasmids encoding Rluc-β-arrestin 2 and receptors fused to Venus were cotransfected into HEK293T cells by using the calcium phosphate method. […] BRET^1 between RLuc and YFP was measured after the addition of coelenterazine h (5 μM, Promega).
# (§2) Data represent the mean ± S.E.M. of three independent experiments.
# as §2
# GPR1 [4] = target: T2, GPR1; assay: β-arrestin BRET recruitment assay, GPR1; parameters: expressed in transfected cells; host or cells: HEK293T; details: GPR1, HEK293T; PTX pretreatment, 100 nM chemerin
# Protocol: as §1, §2, §2
substance,measurement,setting,value
Pertussis toxin,effect of PTX on ERK1/2 phosphorylation,CMKLR1 [1],partially inhibited
same,effect of PTX on ERK1/2 phosphorylation,GPR1 [2],partially inhibited
same,effect of PTX on β-arrestin1 recruitment,CMKLR1 [3],inhibits partially β-arrestin1 recruitment to CMKLR1 and GPR1
same,effect of PTX on β-arrestin2 recruitment,CMKLR1 [3],did not inhibit β-arrestin2 recruitment to CMKLR1 and GPR1
same,effect of PTX on β-arrestin1 recruitment,GPR1 [4],inhibits partially β-arrestin1 recruitment to CMKLR1 and GPR1
same,effect of PTX on β-arrestin2 recruitment,GPR1 [4],did not inhibit β-arrestin2 recruitment to CMKLR1 and GPR1

# — publication PMC5055294 (PLoS ONE, 2016)
